# Measured values from ChEMBL document CHEMBL1201862, “PubChem BioAssay data set” (2004).
#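 Protocol summary: plate cells (96-well), add compound at 5 concentrations, incubate 48 h, interpolate endpoints linearly. Abbreviation: GI50, concentration required for 50% inhibition of growth.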 The source made the active and inactive calls. Rule as the data show it: active = GI50 up to about 1.1 µM and inactive = higher.
# Tests used:
# Assay in all cases: NCI-60 cell line screen, 48 h
# [1] = tested on: NCI-H23
# [2] = tested on: OVCAR-5
# [3] = tested on: BT-549
# [4] = tested on: SF-539
# [5] = tested on: SNB-75
# [6] = tested on: COLO 205
# [7] = tested on: MDA-N
# [8] = tested on: ACHN
# [9] = tested on: SF-268
# [10] = tested on: 786-0
# [11] = tested on: HOP-92
# [12] = tested on: UACC-62
# [13] = tested on: SF-295
# [14] = tested on: SK-OV-3
# [15] = tested on: MOLT-4
# [16] = tested on: SN12C
# [17] = tested on: CAKI-1
# [18] = tested on: SNB-19
# [19] = tested on: SK-MEL-5
# [20] = tested on: DU-145
# [21] = tested on: HCT-15
# [22] = tested on: RXF 393
# [23] = tested on: SK-MEL-28
# [24] = tested on: SK-MEL-2
# [25] = tested on: MDA-MB-435
# [26] = tested on: LOX IMVI
# [27] = tested on: KM12
# [28] = tested on: NCI/ADR-RES
# [29] = tested on: K562
# [30] = tested on: PC-3
# [31] = tested on: HT-29
# [32] = tested on: Hs-578T
# [33] = tested on: SW-620
# [34] = tested on: A498
# [35] = tested on: HCC 2998
# [36] = tested on: OVCAR-4
# [37] = tested on: NCI-H460
# [38] = tested on: Malme-3M
# [39] = tested on: M14
# [40] = tested on: NCI-H226
# [41] = tested on: IGROV-1
# [42] = tested on: OVCAR-8
# [43] = tested on: EKVX
# [44] = tested on: MCF7
# [45] = tested on: UACC-257
# [46] = tested on: UO-31
# [47] = tested on: HCT-116
# [48] = tested on: TK-10
# [49] = tested on: NCI-H522
# [50] = tested on: MDA-MB-231
# [51] = tested on: CCRF-CEM
# [52] = tested on: T47D
# [53] = tested on: OVCAR-3
# [54] = tested on: SR
# [55] = tested on: HOP-62
# [56] = tested on: A549
# [57] = tested on: RPMI-8226
# [58] = tested on: U-251
# [59] = tested on: HL-60
smiles,measurement,setting,value
C=C1C(=O)OC2/C=C(\CO)C3OC3C3OC3(C)CC(OC(=O)/C(=C/C)CO)C12 (stereo not given),GI50,[1],60.3 µM (inactive)
same,GI50,[2],50.7 µM (inactive)
same,GI50,[3],45.4 µM (inactive)
same,GI50,[4],64 µM (inactive)
same,GI50,[5],> 100 µM (inactive)
same,GI50,[6],34.4 µM (inactive)
same,GI50,[7],36.6 µM (inactive)
same,GI50,[8],49.5 µM (inactive)
same,GI50,[9],37.2 µM (inactive)
same,GI50,[10],36.8 µM (inactive)
same,GI50,[11],> 100 µM (inactive)
same,GI50,[12],57.3 µM (inactive)
same,GI50,[13],> 100 µM (inactive)
same,GI50,[14],> 100 µM (inactive)
same,GI50,[15],26.4 µM (inactive)
same,GI50,[16],> 100 µM (inactive)
same,GI50,[17],28.3 µM (inactive)
same,GI50,[18],> 100 µM (inactive)
same,GI50,[19],> 100 µM (inactive)
same,GI50,[20],> 100 µM (inactive)
same,GI50,[21],36.6 µM
same,GI50,[22],47.1 µM (inactive)
same,GI50,[23],42.1 µM (inactive)
same,GI50,[24],> 100 µM (inactive)
same,GI50,[25],53.8 µM (inactive)
same,GI50,[26],48.6 µM (inactive)
same,GI50,[27],> 100 µM (inactive)
same,GI50,[28],> 100 µM (inactive)
same,GI50,[29],24.8 µM (inactive)
same,GI50,[30],> 100 µM (inactive)
same,GI50,[31],54.7 µM (inactive)
same,GI50,[32],> 100 µM (inactive)
same,GI50,[33],30.1 µM (inactive)
same,GI50,[34],> 100 µM (inactive)
same,GI50,[35],> 100 µM (inactive)
same,GI50,[36],45.4 µM (inactive)
same,GI50,[37],> 100 µM (inactive)
same,GI50,[38],25.5 µM (inactive)
same,GI50,[39],> 100 µM (inactive)
same,GI50,[40],> 100 µM (inactive)
same,GI50,[41],> 100 µM (inactive)
same,GI50,[42],86.3 µM (inactive)
same,GI50,[43],44 µM (inactive)
same,GI50,[44],34.8 µM (inactive)
same,GI50,[45],> 100 µM (inactive)
same,GI50,[46],> 100 µM (inactive)
same,GI50,[47],35.8 µM (inactive)
same,GI50,[48],> 100 µM (inactive)
same,GI50,[49],15.8 µM (inactive)
same,GI50,[50],> 100 µM (inactive)
same,GI50,[51],9.33 µM (inactive)
same,GI50,[52],92.9 µM (inactive)
same,GI50,[53],> 100 µM (inactive)
same,GI50,[54],28.2 µM (inactive)
same,GI50,[55],> 100 µM (inactive)
same,GI50,[56],> 100 µM (inactive)
same,GI50,[57],17 µM (inactive)
same,GI50,[58],55.2 µM (inactive)
O=[N+]([O-])c1c(O)c2nonc2c2nn(-c3ccccc3)nc12,GI50,[1],> 100 µM (inactive)
same,GI50,[2],> 100 µM (inactive)
same,GI50,[3],> 100 µM (inactive)
same,GI50,[4],> 100 µM (inactive)
same,GI50,[5],> 100 µM (inactive)
same,GI50,[6],> 100 µM (inactive)
same,GI50,[7],> 100 µM (inactive)
same,GI50,[8],> 100 µM (inactive)
same,GI50,[9],> 100 µM (inactive)
same,GI50,[10],> 100 µM (inactive)
same,GI50,[11],> 100 µM (inactive)
same,GI50,[12],> 100 µM (inactive)
same,GI50,[13],> 100 µM (inactive)
same,GI50,[14],> 100 µM (inactive)
same,GI50,[15],> 100 µM (inactive)
same,GI50,[16],> 100 µM (inactive)
same,GI50,[17],> 100 µM (inactive)
same,GI50,[18],> 100 µM (inactive)
same,GI50,[19],> 100 µM (inactive)
same,GI50,[20],> 100 µM (inactive)
same,GI50,[21],> 100 µM
same,GI50,[59],> 100 µM (inactive)
same,GI50,[23],> 100 µM (inactive)
same,GI50,[24],> 100 µM (inactive)
same,GI50,[25],> 100 µM (inactive)
same,GI50,[26],> 100 µM (inactive)
same,GI50,[27],> 100 µM (inactive)
same,GI50,[28],> 100 µM (inactive)
same,GI50,[29],> 100 µM (inactive)
same,GI50,[30],> 100 µM (inactive)
same,GI50,[31],> 100 µM (inactive)
same,GI50,[32],65.5 µM (inactive)
same,GI50,[33],> 100 µM (inactive)
same,GI50,[35],> 100 µM (inactive)
same,GI50,[36],83.4 µM (inactive)
same,GI50,[37],> 100 µM (inactive)
same,GI50,[38],> 100 µM (inactive)
same,GI50,[39],> 100 µM (inactive)
same,GI50,[40],6.85 µM (inactive)
same,GI50,[41],> 100 µM (inactive)
same,GI50,[42],> 100 µM (inactive)
same,GI50,[43],> 100 µM (inactive)
same,GI50,[44],20.5 µM (inactive)
same,GI50,[45],> 100 µM (inactive)
same,GI50,[46],43.2 µM (inactive)
same,GI50,[47],> 100 µM (inactive)
same,GI50,[48],55.3 µM (inactive)
same,GI50,[49],40 µM (inactive)
same,GI50,[50],> 10 µM (inactive)
same,GI50,[51],> 100 µM (inactive)
same,GI50,[52],> 100 µM (inactive)
same,GI50,[53],> 100 µM (inactive)
same,GI50,[54],> 100 µM (inactive)
same,GI50,[55],> 100 µM (inactive)
same,GI50,[56],> 100 µM (inactive)
same,GI50,[57],> 100 µM (inactive)
same,GI50,[58],> 100 µM (inactive)
